Source: US20160152560A1, “Compounds for the treatment of hypertension and hypertensive end stage renal disease” (THE REGENTS OF THE UNIVERSITY OF CALIFORNIA, priority 2013, published 2016)
Where “and” joins values, the source holds several entries; their conditions need not be identical. Identical values can stand only once. Like-named read-outs stand apart in the source and are kept apart here. Ends that are not written are not given here.

How the values were obtained:
[1] = tested on: T1, nicotinic cholinergic receptor; experiment: Nicotine-stimulated [3H]-norepinephrine (catecholamine) secretion from PC12 cells; type: cell-based, rat; details: for IC50 / Hill slope (cooperativity of inhibition of secretion): nicotine 30 μM, PC12 cells; for Hill slope (cooperativity of inhibition of secretion): Hill plot; for Norepinephrine secretion at ascending nicotine doses (noncompetitive inhibition): nicotine 10 to 1000 μM, PC12 cells (FIG. 3C); for Inhibition of catecholamine release triggered by nicotine: nicotine stimulation, PC12 cells (FIG. 3B)
T1 construct: nicotine 30 μM, PC12 cells, 30 min; other: Hill plot, nicotine 30 μM, PC12 cells; other: screening at 0.5 μM and 5 μM doses; nicotine 30 μM, PC12 cells; other:
Protocol: (§1) Rat PC12 pheochromocytoma cells were grown at 37° C. with 6% CO2, in 12-well plates, in Dulbecco's modified Eagle's medium (high glucose) supplemented with fetal bovine serum, horse serum, and penicillin/streptomycin. Secretion assays were performed as described previously (N. Biswas, et al., Endocrinology, 149 (2008), 749-757). Cells were labeled for 3 h with 1 μCi/mL of [^3H]-norepinephrine (NET678, Perkin-Elmer, Waltham, Mass.), then washed three times with basal medium and one time with secretion buffer. Subsequently, the cells were incubated for 30 min with or without the agonist nicotine (30 μM), in the presence or absence of test compounds (0.5 μM or 5 μM). For IC50 determinations, secretion assays were performed in the presence of increasing concentrations of test compounds. The extracellular secretion medium and the cell lysates were collected for [^3H]-norepinephrine measurement by liquid scintillation counting. Results were expressed as percent secretion:
(§2) % secretion=[amount released/(amount released+amount in lysate)]×100.
(§3) Net secretion was calculated as agonist-stimulated release minus basal release. To establish the specificity of secretory inhibition by test compounds, in some experiments catecholamine release was triggered with other classes of secretagogues that bypass the nicotinic cholinergic pathway: membrane depolarization (55 mM KCl); P2x purinergic receptor stimulation (100 μM ATP); K^+ (repolarizing) channel blockade (2 mM BaCl2 in the absence of extracellular Ca^2+); or a Ca^2+ ionophore (1 μM ionomycin).
Actions of test compounds were compared with the classical noncompetitive nicotinic antagonist chlorisondamine, wherein labeled cells were incubated with different doses of nicotine in the presence or absence of peptide antagonists or chlorisondamine (5 μM).

[2] = tested on: nicotinic receptors; experiment: Nicotine-induced 45Ca2+ uptake by PC12 cells; type: cell-based, rat; details: nicotine 30 μM, read-out: IC50 for inhibition of nicotine-induced 45Ca2+ uptake
Protocol: Nicotinic cholinergic secretory responses in the chromaffin cells are triggered by an early influx of calcium. To test the ability of the compounds to interfere at this early stage of signal transduction, PC12 cells were stimulated with nicotine (30 μM) in the presence or absence of test compounds and agonist-mediated uptake of ^45Ca^2+ was measured. ^45Ca^2+ uptake was performed as described previously with minor modifications S. K. Mahata et al., J. Clin. Invest., 100 (1997), 1623-1633). Briefly, PC12 cells were grown on poly-L-lysine coated 6-well culture dishes, and were washed with 1 mL release buffer (150 mmol/L NaCl, 5 mmol/L KCl, 2 mmol/L CaCl2, 10 mmol/L Hepes buffer, pH 7.4) every 15 minutes for 1 hour at 37° C. Cells were then pre-incubated for 1 min in release buffer in the presence or absence of test compounds. Cells were incubated for 2 min with 1 mL of Ca^2+-free release buffer containing 2 μCi of ^45Ca^2+ (catalog number NEZ01300, Perkin-Elmer), 30 μM nicotine in the presence or absence of test compounds. Thereafter, Ca^2+ uptake was terminated by the addition of 2 mL of ice-cold Ca^2+-free secretion medium containing 2 mmol/L EGTA and 1 mmol/L LaCl3, and further washed six times with 2 mL of the same buffer. Cell lysis buffer (secretion medium containing 0.1% Triton X-100, 1 mL) was then added, and the lysate was collected for liquid scintillation counting.

[3] = tested on: BPH/2J polygenic hypertensive mice; experiment: Telemetric continuous intra-arterial blood pressure and heart rate in hypertensive BPH/2J mice; type: in vivo, mouse; details: 5 μg/g body weight i.p.
Excerpt: Telemetric measurement of blood pressure (BP) in conscious hypertensive mice (polygenic hypertensive BPH/2J mouse model; F. A. Wright et al., Hypertension, 34 (1999), p. 625-630) was achieved using a Data Sciences International (DSI; Transoma Medical) Physiol Tel telemetry system, implanting a catheter coupled to a TA11PA-C20 (DSI) transmitter, as described (N. R. Mahapatra et al., J. Clin. Invest., 115 (2005), 1942-1952). The animals and implants were left to stabilize for ten days after surgery. BPH/2J polygenic hypertensive mice (n=7/group) were then treated with test compound (5 μg/g body weight, intra-peritoneal; or vehicle). BP and heart rate (HR) were measured continuously over 24 hours, before and after compound administration.

[4] = tested on: PC12 cells; experiment: Basal [3H]-norepinephrine secretion from PC12 cells; type: cell-based, rat; details: no agonist
Protocol: as §1, §2
The compounds were also tested to determine their effect on basal secretion.

[5] = tested on: PC12 cells; experiment: Catecholamine release triggered by secretagogues that bypass the nicotinic cholinergic pathway (KCl, ATP, BaCl2, ionomycin); type: cell-based, rat; details: 55 mM KCl, 100 μM ATP, 2 mM BaCl2, 1 μM ionomycin
Protocol: as §3
In addition to nicotinic-cholinergic stimulation, several secretagogues that act at later stages in the secretory pathway than the nicotinic receptor were tested, including membrane depolarization (by KCl), or blockade of repolarization (by Ba^2+). In addition, secretagogues that act on different targets from the nicotinic-cholinergic receptor, such as P2x (ATP) or artificial Ca^2+ pores (Ca^2+ ionophore ionomycin) were used.

[6] = target: nicotinic cholinergic receptor; details: Mahata et al., Mol. Pharmacol. 66 (2004); read-out: IC50 of human catestatin, previously measured; cited from earlier work
[7] = Table 1, 30 min, read-out: IC50: concentration that achieves 50% inhibition of secretion
[8] = increasing compound doses, read-out: IC50 from secretion assays with increasing compound doses

Molecule: CCN1CCC(CNc2cc(C)nc(NC(=N)Nc3ccc(Cl)c(Cl)c3)n2)C1 (stereo not drawn) [TKO-10-16]
- IC50 [1, 7]: 450 nM

Molecule: CC1(C)N=C(N)N=C(N)N1c1cccc(CNC(=O)Nc2ccccc2)c1 [TKO-10-15]
- IC50 [1, 7]: > 5000 nM

Molecule: Cc1ccnc(NS(=O)(=O)c2ccc(/N=N/c3cc(/N=N/c4ccccc4)c(N)nc3N)cc2)n1 [TKO-10-11]
- IC50 [1, 7]: > 5000 nM

Molecule: CNC(=O)c1ccc(NC(=O)Nc2cccc(C3=NCCN3)c2)cc1NC(=O)Nc1cccc(C2=NCCN2)c1 [TKO-10-9]
- IC50 [1, 7]: 1400 nM

Molecule: CNC(=N)c1ccc(NC(=N)c2ccc(Cl)c(C(=N)Nc3ccc(C(=N)NC)cc3)c2)cc1 [TKO-10-6]
- IC50 [1, 7]: 1800 nM

Molecule: C/C(=N\NC(=N)N)c1cccc(NC(=S)Nc2cccc(/C(C)=N/NC(=N)N)c2)c1 [TKO-10-18]
- Hill slope (cooperativity of inhibition of secretion) [1]: near unity
- IC50 [1, 7]: 180 nM
- IC50 [1, 8]: 17 nM
- IC50 [2]: ~90 nM and 90 nM
- Fall in heart rate (HR) [3]: ~180 beats/min
- Reflex tachycardia after fall in BP [3]: not accompanied by reflex tachycardia
- Time by which BP declines were apparent [3]: 10 to 30 min
- Time for which BP declines were maintained [3]: ≤ 60 min
- Reduction in DBP ([3]; initial DBP 104.9±0.1 mmHg): ~25 mmHg
- Reduction in SBP ([3]; initial SBP 145.0±0.6 mmHg): ~33 mmHg

Molecule: C/N=C(\NC)c1ccc(/N=C(\NC)c2ccc(/C(=N/c3ccc(/C(=N/C)NC)cc3)NC)cc2)cc1 [TKO-10-3]
- IC50 [1, 7]: 1700 nM

Molecule: Nc1ccc(CCCCc2nc(N)nc(N)c2-c2ccc(Cl)c(Cl)c2)cc1 [TKO-10-19]
- IC50 [1, 7]: 2600 nM

Molecule: CCN1CCC(CNc2cc(C)nc(NC(=N)Nc3cc(Cl)cc(Cl)c3)n2)C1 (stereo not drawn) [TKO-10-17]
- IC50 [1, 7]: 1900 nM

Molecule: Nc1nc(N)c(/N=N/c2ccc(S(=O)(=O)Nc3ncccn3)cc2)cc1/N=N/c1ccccc1 [TKO-10-12]
- IC50 [1, 7]: 2000 nM

Molecule: C/N=C(/NC)c1ccc(NC(=O)Nc2ccc(C)c(NC(=O)Nc3ccc(/C(=N\C)NC)cc3)c2)cc1 [TKO-10-7]
- IC50 [1, 7]: 290 nM
- IC50 [1, 8]: 24 nM
- IC50 [2]: ~100 nM and 100 nM

Molecule: Cc1cc(NC(=O)NCc2ccc(N3C(N)=NC(N)=NC3(C)C)cc2)ccc1S(=O)(=O)F [TKO-10-13]
- IC50 [1, 7]: 870 nM

Molecule: O=C(Nc1cc(C2=NCCN2)cc(C2=NCCN2)c1)Nc1cc(C2=NCCN2)cc(C2=NCCN2)c1 [TKO-10-2]
- IC50 [1, 7]: > 5000 nM

Molecule: CCN(CC)CC(O)CNc1cc(C)nc(NC(=N)Nc2ccc(Cl)c(Cl)c2)n1 (stereo not drawn) [TKO-10-14]
- IC50 [1, 7]: 680 nM
- Norepinephrine secretion at ascending nicotine doses (noncompetitive inhibition) ([1]; 30 min): reduced norepinephrine secretion significantly
- Inhibition of catecholamine release triggered by nicotine [1]: significantly inhibited catecholamine release
- Effect on basal secretion (~5% 3H-NE release) [4]: remained unaltered
- Inhibition of catecholamine release caused by agents acting distal to the receptor or on other receptor classes [5]: not when secretion was caused by agents acting distal to the receptor, or on other receptor classes

Molecule: CNC(=O)c1cc(NC(=O)Nc2cccc(C3=NCCN3)c2)cc(NC(=O)Nc2cccc(C3=NCCN3)c2)c1 [TKO-10-5]
- Hill slope (cooperativity of inhibition of secretion) [1]: near unity
- IC50 [1, 7]: 1100 nM
- IC50 [1, 8]: 1000 nM
- Norepinephrine secretion at ascending nicotine doses (noncompetitive inhibition) ([1]; 30 min): reduced norepinephrine secretion significantly
- Inhibition of catecholamine release triggered by nicotine [1]: significantly inhibited catecholamine release
- IC50 [2]: ~100 nM and 100 nM
- Effect on basal secretion (~5% 3H-NE release) [4]: remained unaltered
- Inhibition of catecholamine release caused by agents acting distal to the receptor or on other receptor classes [5]: not when secretion was caused by agents acting distal to the receptor, or on other receptor classes

Molecule: C/N=C(/NC)c1ccc(NC(=O)Nc2cccc(NC(=O)Nc3ccc(/C(=N\C)NC)cc3)c2)cc1 [TKO-10-4]
- IC50 [1, 7]: 230 nM
- IC50 [1, 8]: 41 nM
- IC50 [2]: ~70 nM and 70 nM

Molecule: Nc1nc(N)c(-c2ccc(Cl)cc2)c(CCc2ccc(NC(=O)CBr)cc2)n1 [TKO-10-10]
- IC50 [1, 7]: 1500 nM

Molecule: SSMKLSFRARAYGFRGPGPQL [Human catestatin]
- IC50 [6]: 820 nM

Molecule: CCN1CCCC(CNc2cc(C)nc(NC(=N)Nc3ccc(Cl)c(Cl)c3)n2)C1 (stereo not drawn) [TKO-10-20]
- IC50 [1, 7]: 1100 nM

Molecule: Nc1nc(N)c2nc(CNc3ccc(C(=O)N[C@@H](CCC(=O)O)C(=O)O)cc3)cnc2n1 [TKO-10-1]
- IC50 [1, 7]: > 5000 nM

Molecule: CCN/C(=N/c1cccc(C2=NCCN2)c1)c1ccc(/C(=N\c2cccc(C3=NCCN3)c2)NCC)cc1 [TKO-10-8]
- IC50 [1, 7]: 1600 nM
